# Measurements taken from US12185720B2, “Chitooligosaccharides and methods for use in enhancing plant growth” (NOVOZYMES BIOAG A/S, priority 2011, dated 2025).
# System: Tomato seeds of hybrid tomato var. Royal Mounty
# Assay: In vitro tomato seedling root growth bioassay (agar medium)
# Assay type: in vivo
# Conditions: day 7; control water
# Procedure: Tomato seeds of hybrid tomato var. Royal Mounty were surface sterilized with 10% bleach solution for 10 minutes followed by 3 rinses with sterilized distilled water. Seeds were then dried in a laminar air flow hood for 3 hours. Seeds were then placed in petri-dishes on solidified agar medium containing various concentrations of different sources of the LCO illustrated in FIG. 1b (manufactured by Darmstadt, Germany and Grenoble, France) (also referred to in the examples as the “soybean LCO”) and the inventive CO illustrated in FIG. 2a (also referred to in the examples as the “pea CO” or “CO-V”). Seedling roots were measured by a hand ruler and root fresh weights were taken in a micro balance at day 7. Growth study was done in a growth chamber at 22° C.
substance,measurement,value
"LCO-V(C18:1, MeFuc) [Soybean LCO, reference compound]","root fresh weight, compared to control seedlings",significantly better than control seedlings
same,"root length, compared to control seedlings",significantly better than control seedlings
